Laboratory results as given in EP4696306A1, “ADENOSINE TRIPHOSPHATE SECRETION INHIBITOR, HEPATIC STELLATE CELL ACTIVATION INHIBITOR, HEPATIC STELLATE CELL DEACTIVATOR, HEPATIC FIBROSIS THERAPEUTIC AGENT, NON-ALCOHOLIC STEATOHEPATITIS THERAPEUTIC AGENT, PSORIASIS THERAPEUTIC AGENT, AND USE OF COMPOUND FOR PRODUCING ADENOSINE TRIPHOSPHATE …” (KURUME UNIVERSITY, priority 2023, dated 2024).

Experiments:
[1] = tested on: Thioacetamide-induced hepatic fibrosis; assay: Thioacetamide-induced hepatic fibrosis in mice; assay type: in vivo
Procedure: Wild-type mice, […] (manufactured by Charles River Japan), were housed on a 12-hour light/dark cycle and fed a standard solid diet (5.4% fat, CRF-1, manufactured by Oriental Yeast Co., Ltd.) ad libitum. Thioacetamide (TAA, manufactured by FUJIFILM Wako Pure Chemical Corporation) was dissolved in physiological saline at 0.9% w/v. Eight-week-old mice were randomly assigned to three groups and continuously treated for 9 weeks according to the following scheme. At Week 9, all mice were euthanized 1 hour after administration of physiological saline or IMG.
Normal control group (N = 6): Physiological saline was intraperitoneally administered to mice three times per week. Eight hours after each administration, a vehicle was orally administered to the mice.
TAA group (N = 6): TAA(50 mg/kg, intraperitoneal) was administered to mice. Eight hours thereafter, physiological saline was orally administered to the mice. This treatment was performed three times per week for a total of 9 weeks.
TAA + IMG group (N = 6): During the first week, physiological saline was orally administered to mice. Thereafter, imeglimin (IMG) at 200 mg/kg was orally administered three times per week for 8 weeks. The administration of IMG was performed 8 hours after intraperitoneal administration of TAA (50 mg/kg).
For immunohistochemical analysis, liver samples were fixed in 4% paraformaldehyde, embedded in paraffin, and then sectioned. The sections were stained with HE or PSR. In addition, the paraffin-embedded sections were subjected to immunostaining using an α-SMA monoclonal antibody (1:500, catalog No. A5228, manufactured by Sigma-Aldrich) and an F4/80 monoclonal antibody (1:200, catalog No. MCA497GA, manufactured by AbD Serotec). The cell specimens were observed using a microscope (BZ-X700 series, manufactured by Keyence) or a confocal laser microscope (FV1000, manufactured by Olympus Corporation). The number of F4/80-positive cells was counted in four high-power fields per section. The α-SMA-positive area and the PSR-positive area were quantified using the image analysis software Fiji-ImageJ (1.54f).
A histological score was determined by a blinded investigator using the NAFLD histological scoring system of the Nonalcoholic Steatohepatitis Clinical Research Network. The total NAFLD activity score (NAS) was calculated from the total of the individual scores for steatosis ([…]), lobular inflammation (F4/80), and hepatocyte ballooning. The range of each parameter was 0 to 2 (ballooning) or 3 (the other two scores), where 0 indicates normal and 2 or 3 indicates severe. Staging of fibrosis was based on the NASH fibrosis stages, and a fibrosis stage ranging from 0 to 4 was determined according to Reference H (David E. Kleiner et al., 2005, Design and validation of a histological scoring system for nonalcoholic fatty liver disease, Hepatology, 41, 1313-1321).
All results are expressed as the mean ± standard error of the mean (S.E.M.). Statistical analyses were performed using GraphPad Prism 7.0 (GraphPad Software). Significance upon comparison between two groups was evaluated by an unpaired two-tailed Student's t-test. An unpaired two-tailed Student's t-test was used. Statistical significance among three or more groups was determined by two-way analysis of variance (ANOVA) with Tukey's or Dunnett's post hoc test. Coloc2 was used to perform image analysis, automatic thresholding, and pixel intensity correlation for statistical processing. Statistical significance was assumed when the P value was < 0.05.
In accordance with Example 15, immunostaining of α-SMA in liver sections and observation by fluorescence microscopy were performed for the normal control group, the TAA group, and the TAA + IMG group, and for a TAA + Clo group, which was treated in the same manner as the TAA + IMG group except that clodronate, instead of imeglimin, was administered at 30 mg/kg by blending it in the drinking water from 1 week after the start of TAA administration. […]

[2] = tested on: human epidermal keratinocytes; assay: LPS-stimulated ATP secretion in keratinocytes; assay type: cell-based; conditions: 18 hours incubation, LPS 10 µg/ml 10 minutes, N = 8
Procedure: Keratinocytes were cultured in the same manner as in Example 1. Keratinocytes were cultured at 2.5 × 10^4 cells/well in a 24-well plate at 37°C in 5% CO2 for 4 days. The medium was replaced with a test solution (Hanks' balanced salt solution (HBSS) (manufactured by Gibco) supplemented with imeglimin, metformin, or clodronate), and then incubation was performed at 37°C in 5% CO2 for 18 hours. Thereafter, LPS (10 µg/ml) was added thereto, and incubation was further carried out for 10 minutes, followed by collection of 200 µl of the supernatant. The supernatant was immediately treated on a heat block at 95°C for 10 minutes, and ATP in the supernatant was quantified using an ATP Assay Kit - Luminescence (manufactured by Dojindo) (N = 8).

[3] = tested on: THP-1 cells; assay: LPS-stimulated ATP secretion in macrophages differentiated from THP-1 cells; assay type: cell-based, human; conditions: 10 µM; LPS 10 µg/ml 10 minutes; N = 10
Procedure: Human acute monocytic leukemia cells (THP-1 cells (ACTT)) were cultured in accordance with Reference D. THP-1 cells were cultured in RPMI1640 medium supplemented with 10% fetal bovine serum (FBS), 100 units/ml penicillin, and 100 µg/ml streptomycin at 37°C in 5% CO2 for 1 day. Further, THP-1 cells were cultured in RPMI1640 medium supplemented with 1 µg/ml Escherichia coli scrotype 055:B5 (manufactured by Sigma-Aldrich) and 1000 units/ml mouse IFN-γ (manufactured by R&D Systems) at 37°C in 5% CO2 for 1 day, to allow differentiation into macrophages.
The differentiated macrophages were cultured in RPMI1640 medium supplemented with 1 mg/ml Escherichia coli scrotype 055:B5 (manufactured by Sigma-Aldrich) and 1000 units/ml mouse IFN-γ (manufactured by R&D Systems) at 2.5 × 10^4 cells/well in a 24-well plate at 37°C in 5% CO2 for 4 days. The medium was replaced with HBSS (manufactured by Gibco) supplemented with imeglimin or clodronate), and then LPS (10 µg/ml) was added thereto, followed by further performing incubation for 10 minutes and then collection of 200 µl of the supernatant. The supernatant was immediately treated on a heat block at 95°C for 10 minutes, and ATP in the supernatant was quantified using an ATP assay kit - Luminescence (manufactured by Dojindo) (N = 10).

[4] = imeglimin 200 mg/kg orally three times per week for 8 weeks

SMILES	α-SMA-positive reaction in liver, increase by TAA ([1]; clodronate 30 mg/kg in the drinking water, immunostaining)	α-SMA-positive area fraction ([1]; clodronate 30 mg/kg in the drinking water, normal control 0.14 ± 0.01, TAA group 2.79 ± 0.33, four measurements per group)	ATP secretion upon LPS stimulation ([2]; 10 µM)	ATP secretion upon LPS stimulation [3]	α-SMA in liver sections (immunostaining and fluorescence microscopy) ([1]; imeglimin 200 mg/kg orally)	α-SMA-positive reaction by Western blotting of liver tissue, increase due to TAA ([1]; imeglimin 200 mg/kg orally)	fibrosis score, increase by TAA [1, 4]	liver histology (HE staining) [1, 4]	positive reaction of F4/80-positive macrophages, increase by TAA [1, 4]	α-SMA-positive reaction (activation of hepatic stellate cells), increase by TAA [1, 4]	PSR staining-positive area (collagen fibers) ([1]; imeglimin 200 mg/kg orally three times per week for 8 weeks, versus TAA group)	ATP secretion upon LPS stimulation ([2]; 1 µM)
O=P(O)(O)C(Cl)(Cl)P(=O)(O)O [clodronate]	markedly suppressed	0.71 ± 0.10	almost completely inhibited	strongly inhibited								
C[C@H]1N=C(N(C)C)N=C(N)N1 [imeglimin]			almost completely inhibited	strongly inhibited	effect similar to that of clodronate	markedly suppressed	suppressed	reduced destruction of the lobular structure, hepatocyte ballooning, and inflammatory cell infiltration	strongly suppressed	strongly suppressed	significantly reduced	almost completely inhibited
